# Measured values as given in US8481525B2, “Kinase inhibitors and method of treating cancer with same” (University of Health Network, priority 2009, dated 2013).
# Columns and labels:
# [1] = test system: HCC1954 basal breast cancer cell line; test: Cell growth inhibition, Sulforhodamine B assay (SRB); type: cell-based; conditions: Homo sapiens, HCC1954, 120 h, read-out: Cell Line GI50 Range HCC-1954
# Method in brief: (§1)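 Growth inhibition is measured by SRB staining after 5 days of culture. Cells are fixed with cold 10% TCA, stained, washed with 1% acetic acid and read at 570 nm. Values are relative to DMSO-treated cells, with GI50 calculated for cytotoxic compounds.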
# [2] = test system: SW620 colon cancer cell line; test: as above; type: cell-based; conditions: Homo sapiens, SW-620, 120 h, read-out: Cell Line GI50 Range SW-620, SW620 colon cancer cell line; 5 days culture; SRB
# Method in brief: as §1
# [3] = test system: 184A1 immortalized breast cell line; test: Cell growth inhibition, SRB assay, extended panel; type: cell-based; conditions: 184A1, 120 h, read-out: GI50 Range
# Description: (§2) The cells were cultured for 5 days before the Sulforhodamine B assay (SRB) was performed to determine the compound's cell growth inhibition activity.
# (§3) Sulforhodamine B (purchased from Sigma, Oakville, ON, Canada) is a water-soluble dye that binds to the basic amino acids of the cellular proteins. Thus, colorimetric measurement of the bound dye provides an estimate of the total protein mass that is related to the cell number. the cells are fixed in situ by gently aspirating off the culture media and adding 50 μl ice cold 10% Trichloroacetic Acid (TCA) per well and incubate at 4° C. for 30-60 min, The plates are washed with water five times and allowed to air dry for 5 min. […] Following staining, plates are washed four times with 1% acetic acid to remove unbound dye and then allowed to air dry for 5 min. […] Absorbance is read at 570 nm.
# (§4) The percentage (%) of relative growth inhibition was calculated by comparing to DMSO treated only cells (100%). GI50's were determined for compounds with cytotoxic activity. The GI50 was calculated using GraphPad PRISM software (GraphPad Software, Inc., San Diego, Calif., USA).
# (§5) The sulforhodamine B assay (SRB) described above was use to assay test compounds against the extended panel (Table 6).
# [4] = test system: BT474 breast cancer cell line; test: Cell growth inhibition, SRB assay, extended panel; type: cell-based; conditions: Homo sapiens, BT-474, 120 h, read-out: GI50 Range
# Description: as §2, §3, §4, §5
# [5] = test system: HCT-15 colon cancer cell line; test: Cell growth inhibition, SRB assay, extended panel; type: cell-based; conditions: Homo sapiens, HCT-15, 120 h, read-out: GI50 Range
# Description: as §2, §3, §4, §5
# [6] = test system: HCT116+/+ colon cancer cell line; test: Cell growth inhibition, SRB assay, extended panel; type: cell-based; conditions: Homo sapiens, HCT-116, 120 h, read-out: GI50 Range
# Description: as §2, §3, §4, §5
# [7] = test system: HCT116+/− colon cancer cell line; test: Cell growth inhibition, SRB assay, extended panel; type: cell-based; conditions: Homo sapiens, HCT-116, 120 h, read-out: GI50 Range
# Description: as §2, §3, §4, §5
# [8] = test system: PC-3 prostate cancer cell line; test: Cell growth inhibition, SRB assay, extended panel; type: cell-based; conditions: 120 h, read-out: GI50 Range
# Description: as §2, §3, §4, §5
# [9] = test system: SK-OV-3 ovarian cancer cell line; test: Cell growth inhibition, SRB assay, extended panel; type: cell-based; conditions: Homo sapiens, SK-OV-3, 120 h, read-out: GI50 Range
# Description: as §2, §3, §4, §5
# [10] = test system: SKBR3 breast cancer cell line; test: Cell growth inhibition, SRB assay, extended panel; type: cell-based; conditions: Homo sapiens, SK-BR-3, 120 h, read-out: GI50 Range
# Description: as §2, §3, §4, §5
# [11] = test system: SW 626 ovarian cancer cell line; test: Cell growth inhibition, SRB assay, extended panel; type: cell-based; conditions: Homo sapiens, SW626, 120 h, read-out: GI50 Range
# Description: as §2, §3, §4, §5
# HUV-EC-C cells = test: In Vitro Angiogenesis Assay (tube formation); conditions: HUV-EC-C cells on ECMatrix, 4 hr; FIGS. 1 and 2
# [12] = test system: human mammary epithelial primary cells (HMEC); test: Cell growth inhibition, Sulforhodamine B assay (SRB); conditions: 120 h, read-out: Cell Line GI50 Range HMEC
smiles,measurement,setting,value
"CN(C)Cc1ccc(/C=C/c2n[nH]c3cc([C@@H]4C[C@@]45C(=O)Nc4ccccc45)ccc23)cc1 (racemic) [Example A23, (1R*,2S*)-(E)-2-(3-(4-((dimethylamino)methyl)styryl)-1H-indazol-6-yl)spiro[cyclopropane-1,3′-indolin]-2′-one 2,2,2-trifluoroacetate]",GI50,[1],1 to 10 µM
same,GI50,[2],< 0.1 µM
same,GI50,[3],1 to 50 µM
same,GI50,[4],1 to 50 µM
same,GI50,[5],1 to 50 µM
same,GI50,[6],1 to 50 µM
same,GI50,[7],1 to 50 µM
same,GI50,[8],1 to 50 µM
same,GI50,[9],1 to 50 µM
same,GI50,[10],1 to 50 µM
same,GI50,[11],1 to 50 µM
same,"anti-angiogenic effect (tube formation, % of control tube count)",HUV-EC-C cells,anti-agiogenic effects at submicromolar concentrations
same,GI50,[12],> 10 µM
